Measured values taken from ChEMBL document CHEMBL1130973, “Synthesis and biological evaluation of 3-arylisoquinolines as antitumor agents” (Bioorg Med Chem Lett, 1998).
Several values for one entry are separate records, joined by “and”; a condition that tells them apart may be missing. Identical values can stand only once.

What was measured:
SK-MEL-2 [1] = assay: In vitro cytotoxicity against SK-MEL-2 (human melanoma) tumor cell line.; assay type: functional, cell-based
HCT-15 (Homo sapiens) [2] = assay: In vitro cytotoxicity against HCT 15 (human colon) tumor cell line.
A549 [3] = assay: Tested for in vitro cytotoxicity against A 549 (human lung) tumor cell line using sulforhodamine B (SRB) assay; assay type: functional, cell-based
SK-OV-3 [4] = assay: In vitro cytotoxicity against SKOV-3 (human ovarian) tumor cell line.; assay type: functional, cell-based
XF498 (Homo sapiens) = assay: In vitro cytotoxicity against XF498 (human CNS) tumor cell line.
Mus musculus = assay: In vivo anti tumor activity towards P388 leukemia in BDFl mouse expressed as T/C; assay type: functional
XF498 [5] = assay: In vitro cytotoxicity against XF498 (human CNS) tumor cell line.; assay type: functional, cell-based
HCT-15 [6] = assay: In vitro cytotoxicity against HCT 15 (human colon) tumor cell line.; assay type: functional, cell-based
HCT-15 [7] = assay: Tested for in vitro cytotoxicity against HCT 15 (human colon) tumor cell line using sulforhodamine B (SRB) assay; not active (> 100 uM); assay type: functional, cell-based
SK-OV-3 [8] = assay: Tested for in vitro cytotoxicity against SKOV-3 (human ovarian) tumor cell line using sulforhodamine B (SRB) assay; not active (> 100 uM); assay type: functional, cell-based
SK-MEL-2 [9] = assay: Tested for in vitro cytotoxicity against SK-MEL-2 (human melanoma) tumor cell line using sulforhodamine B (SRB) assay; not active (> 100 uM); assay type: functional, cell-based
HCT-15 (Homo sapiens) [10] = assay: Tested for in vitro cytotoxicity against HCT 15 (human colon) tumor cell line using sulforhodamine B (SRB) assay; not active (> 100 uM)
A549 [11] = assay: Tested for in vitro cytotoxicity against A 549 (human lung) tumor cell line using sulforhodamine B (SRB) assay; not active (> 100 uM); assay type: functional, cell-based
SK-MEL-2 [12] = assay: Tested for inhibitory activity against SK-MEL-2 (human melanoma) tumor cell line; assay type: functional, cell-based
SK-OV-3 [13] = assay: Tested for in vitro cytotoxicity against SKOV-3 (human ovarian) tumor cell line using sulforhodamine B (SRB) assay; assay type: functional, cell-based
SK-MEL-2 [14] = assay: Tested for in vitro cytotoxicity against SK-MEL-2 (human melanoma) tumor cell line using sulforhodamine B (SRB) assay; assay type: functional, cell-based
HCT-15 [15] = assay: Tested for in vitro cytotoxicity against HCT 15 (human colon) tumor cell line using sulforhodamine B (SRB) assay; assay type: functional, cell-based
XF498 [16] = assay: Tested for in vitro cytotoxicity against XF498 (human CNS) tumor cell line using sulforhodamine B (SRB) assay; assay type: functional, cell-based

Compound CN1CCN(c2nc(-c3ccccc3)cc3ccccc23)CC1 has an IC50 (SK-MEL-2 [1]; Homo sapiens, SK-MEL-2) of 11.8 µM, an IC50 (HCT-15 (Homo sapiens) [2]) of 18.6 µM and an IC50 (A549 [3]; Homo sapiens, A549) of 25.1 µM. For the same compound, the IC50 (SK-OV-3 [4]; Homo sapiens, SK-OV-3) was 22.4 µM, the IC50 (XF498 (Homo sapiens)) was 37.1 µM and the T/C (Mus musculus) was 160%.

Oc1nc(-c2ccccc2)cc2ccccc12 showed an IC50 (SK-MEL-2 [1]; Homo sapiens, SK-MEL-2) of 2.57 µM, an IC50 (HCT-15 (Homo sapiens) [2]) of 1.38 µM and an IC50 (A549 [3]; Homo sapiens, A549) of 5.75 µM. The IC50 (SK-OV-3 [4]; Homo sapiens, SK-OV-3) was 2.45 µM and the IC50 (XF498 (Homo sapiens)) was 5.89 µM.

Cc1ccc(-c2cc3ccccc3c(O)n2)cc1 gave an IC50 (SK-MEL-2 [1]; Homo sapiens, SK-MEL-2) of 5.01 µM, an IC50 (HCT-15 (Homo sapiens) [2]) of 7.08 µM and an IC50 (A549 [3]; Homo sapiens, A549) of 30.2 µM. It also gave an IC50 (SK-OV-3 [4]; Homo sapiens, SK-OV-3) of 13.8 µM and an IC50 (XF498 (Homo sapiens)) of 42.7 µM.

With Cc1ccc2c(S)nc(-c3ccccc3)cc2c1 the IC50 (SK-MEL-2 [1]; Homo sapiens, SK-MEL-2) was 19.5 µM, the IC50 (SK-MEL-2 [1]; sk-mel-2) was 25.1 µM and the IC50 (XF498 [5]) was 9.12 µM and 75.9 µM. It also gave an IC50 (A549 [3]; Homo sapiens, A549) of 8.51 µM, an IC50 (A549 [3]; a549) of 11 µM and an IC50 (SK-OV-3 [4]; Homo sapiens, SK-OV-3) of 34.7 µM. For the same compound, the IC50 (SK-OV-3 [4]; sk-ov-3) was 56.2 µM and the IC50 (HCT-15 [6]) was 19.1 µM and 41.9 µM.

For COc1ccc(-c2cc3c(N(C)C)cccc3c(N3CCN(C)CC3)n2)cc1, the IC50 (SK-MEL-2 [1]; Homo sapiens, SK-MEL-2) was 3.98 µM, the IC50 (HCT-15 (Homo sapiens) [2]) was 10.7 µM and the IC50 (A549 [3]; Homo sapiens, A549) was 1.82 µM. It also gave an IC50 (SK-OV-3 [4]; Homo sapiens, SK-OV-3) of 13.2 µM and an IC50 (XF498 (Homo sapiens)) of 6.17 µM.

For Cc1ccc2c(N3CCN(C)CC3)nc(-c3ccccc3C)cc2c1, the IC50 (SK-MEL-2 [1]; Homo sapiens, SK-MEL-2) was 3.38 µM, the IC50 (HCT-15 (Homo sapiens) [2]) was 6.61 µM and the IC50 (A549 [3]; Homo sapiens, A549) was 7.59 µM. For the same compound, the IC50 (SK-OV-3 [4]; Homo sapiens, SK-OV-3) was 5.13 µM and the IC50 (XF498 (Homo sapiens)) was 77.6 µM.

Cc1ccc2c(O)nc(-c3ccccc3)cc2c1 was tested, and the IC50 (SK-MEL-2 [1]; Homo sapiens, SK-MEL-2) was 1.58 µM, the IC50 (HCT-15 (Homo sapiens) [2]) was 0.76 µM and the IC50 (A549 [3]; Homo sapiens, A549) was 1.32 µM. It also gave an IC50 (SK-OV-3 [4]; Homo sapiens, SK-OV-3) of 1.7 µM and an IC50 (XF498 (Homo sapiens)) of 5.13 µM.

For CN(C)c1cccc2c(O)nc(-c3ccc(Br)cc3)cc12, the IC50 (HCT-15 [7]) was “Not Active”, the IC50 (SK-OV-3 [8]) was “Not Active” and the IC50 (SK-MEL-2 [9]) was “Not Active”. For the same compound, the IC50 (HCT-15 (Homo sapiens) [10]) was “Not Active” and the IC50 (A549 [11]) was “Not Active”.

COc1ccc(-c2cc3ccccc3c(S)n2)cc1 was tested, and the IC50 (SK-OV-3 [8]) was “Not Active”, the IC50 (SK-MEL-2 [9]) was “Not Active” and the IC50 (XF498 (Homo sapiens)) was 83.2 µM. The IC50 (HCT-15 (Homo sapiens) [10]) was “Not Active” and the IC50 (A549 [11]) was “Not Active”.

Oc1nc(-c2ccc(C(F)(F)F)cc2)cc2ccccc12 was tested, and the IC50 (HCT-15 [7]) was “Not Active”, the IC50 (SK-MEL-2 [9]) was “Not Active” and the IC50 (SK-OV-3 [4]; Homo sapiens, SK-OV-3) was 87.3 µM. For the same compound, the IC50 (HCT-15 (Homo sapiens) [10]) was “Not Active” and the IC50 (A549 [11]) was “Not Active”.

With COc1ccc(-c2cc3cc(C)ccc3c(N3CCN(C)CC3)n2)cc1 the IC50 (SK-MEL-2 [1]; Homo sapiens, SK-MEL-2) was 3.71 µM, the IC50 (HCT-15 (Homo sapiens) [2]) was 7.41 µM and the IC50 (A549 [3]; Homo sapiens, A549) was 7.41 µM. It also gave an IC50 (SK-OV-3 [4]; Homo sapiens, SK-OV-3) of 7.94 µM and an IC50 (XF498 (Homo sapiens)) of 9.33 µM.

In the case of Cc1ccc(-c2cc3cc(C)ccc3c(O)n2)cc1, the IC50 (SK-MEL-2 [1]; Homo sapiens, SK-MEL-2) is reported as 7.76 µM, the IC50 (HCT-15 (Homo sapiens) [2]) is reported as 11.2 µM and the IC50 (A549 [3]; Homo sapiens, A549) is reported as 5.62 µM. The IC50 (SK-OV-3 [4]; Homo sapiens, SK-OV-3) was 4.9 µM and the IC50 (XF498 (Homo sapiens)) was 35.5 µM.

Compound C=Cc1cc2c(cc1-c1cc3ccc(OC)c(OC)c3c(=O)n1C)OCO2 has an IC50 (SK-MEL-2 [12]) of 0.2 nM.

Compound Oc1nc(-c2ccc3c(c2)OCO3)cc2ccccc12 has an IC50 (SK-MEL-2 [1]; Homo sapiens, SK-MEL-2) of 25.1 µM, an IC50 (HCT-15 (Homo sapiens) [2]) of 2.69 µM and an IC50 (SK-OV-3 [4]; Homo sapiens, SK-OV-3) of 77.6 µM. The IC50 (XF498 (Homo sapiens)) was 17.8 µM and the IC50 (A549 [11]) was “Not Active”.

Compound Cc1ccc2c(N3CCN(C)CC3)nc(-c3ccc(Cl)cc3)cc2c1 has an IC50 (SK-MEL-2 [1]; Homo sapiens, SK-MEL-2) of 2.4 µM, an IC50 (HCT-15 (Homo sapiens) [2]) of 4.07 µM and an IC50 (A549 [3]; Homo sapiens, A549) of 3.19 µM. The IC50 (SK-OV-3 [4]; Homo sapiens, SK-OV-3) was 5.75 µM and the IC50 (XF498 (Homo sapiens)) was 6.03 µM.

Cc1ccc(-c2cc3c(N(C)C)cccc3c(O)n2)cc1 was tested, and the IC50 (HCT-15 [7]) was “Not Active”, the IC50 (SK-OV-3 [8]) was “Not Active” and the IC50 (SK-MEL-2 [9]) was “Not Active”. The IC50 (HCT-15 (Homo sapiens) [10]) was “Not Active” and the IC50 (A549 [11]) was “Not Active”.

Work on Cc1ccc(-c2cc3cc(C)ccc3c(N3CCN(C)CC3)n2)cc1 yielded an IC50 (SK-MEL-2 [1]; Homo sapiens, SK-MEL-2) of 2.4 µM, an IC50 (HCT-15 (Homo sapiens) [2]) of 4.47 µM and an IC50 (A549 [3]; Homo sapiens, A549) of 7.24 µM. It also gave an IC50 (SK-OV-3 [4]; Homo sapiens, SK-OV-3) of 7.08 µM and an IC50 (XF498 (Homo sapiens)) of 8.32 µM.

CN1CCN(c2nc(-c3ccc(Cl)cc3)cc3c(N(C)C)cccc23)CC1 was tested, and the IC50 (SK-MEL-2 [1]; Homo sapiens, SK-MEL-2) was 4.3 µM, the IC50 (HCT-15 (Homo sapiens) [2]) was 7.3 µM and the IC50 (A549 [3]; Homo sapiens, A549) was 7.45 µM. The IC50 (SK-OV-3 [4]; Homo sapiens, SK-OV-3) was 7.56 µM and the IC50 (XF498 (Homo sapiens)) was 7.98 µM.

Work on COc1ccc2c(c[n+](C)c3c4cc5c(cc4ccc23)OCO5)c1O [FAGARIDINE] yielded an IC50 (SK-MEL-2 [1]; Homo sapiens, SK-MEL-2) of 2.75 µM, an IC50 (HCT-15 (Homo sapiens) [2]) of 1.12 µM and an IC50 (A549 [3]; Homo sapiens, A549) of 1.02 µM. The IC50 (SK-OV-3 [4]; Homo sapiens, SK-OV-3) was 1.35 µM and the IC50 (XF498 (Homo sapiens)) was 1.12 µM.

In the case of CN(C)c1cccc2c(O)nc(-c3ccccc3)cc12, the IC50 (HCT-15 [7]) is reported as “Not Active”, the IC50 (SK-OV-3 [8]) is reported as “Not Active” and the IC50 (SK-MEL-2 [9]) is reported as “Not Active”. For the same compound, the IC50 (HCT-15 (Homo sapiens) [10]) was “Not Active” and the IC50 (A549 [11]) was “Not Active”.

In the case of COc1ccc(-c2cc3c(N(C)C)cccc3c(O)n2)cc1, the IC50 (HCT-15 [7]) is reported as “Not Active”, the IC50 (SK-OV-3 [8]) is reported as “Not Active” and the IC50 (SK-MEL-2 [9]) is reported as “Not Active”. For the same compound, the IC50 (HCT-15 (Homo sapiens) [10]) was “Not Active” and the IC50 (A549 [11]) was “Not Active”.

Sc1nc(-c2ccccc2)cc2ccccc12 was tested, and the IC50 (HCT-15 [7]) was “Not Active”, the IC50 (SK-OV-3 [8]) was “Not Active” and the IC50 (SK-MEL-2 [9]) was “Not Active”. For the same compound, the IC50 (HCT-15 (Homo sapiens) [10]) was “Not Active” and the IC50 (A549 [11]) was “Not Active”.

In the case of Cc1ccc2c(O)nc(-c3ccc(Cl)cc3)cc2c1, the IC50 (SK-OV-3 [13]) is reported as 6.03 µM, the IC50 (A549 [3]) is reported as 5.75 µM and the IC50 (SK-MEL-2 [14]) is reported as 6.31 µM. For the same compound, the IC50 (HCT-15 [15]) was 11.2 µM and the IC50 (XF498 [16]) was 11.2 µM.

Cc1ccc2c(O)nc(-c3ccccc3C)cc2c1 gave an IC50 (SK-MEL-2 [1]; Homo sapiens, SK-MEL-2) of 2.63 µM, an IC50 (HCT-15 (Homo sapiens) [2]) of 1.99 µM and an IC50 (A549 [3]; Homo sapiens, A549) of 5.89 µM. For the same compound, the IC50 (SK-OV-3 [4]; Homo sapiens, SK-OV-3) was 4.27 µM and the IC50 (XF498 (Homo sapiens)) was 30.9 µM.

CN1CCN(c2nc(-c3ccccc3)cc3c(N(C)C)cccc23)CC1 gave an IC50 (SK-MEL-2 [1]; Homo sapiens, SK-MEL-2) of 7.08 µM, an IC50 (HCT-15 (Homo sapiens) [2]) of 9.55 µM and an IC50 (A549 [3]; Homo sapiens, A549) of 10 µM. It also gave an IC50 (SK-OV-3 [4]; Homo sapiens, SK-OV-3) of 11.2 µM and an IC50 (XF498 (Homo sapiens)) of 19.9 µM.
